Legend:
[1] = human
[2] = human; remark: listed apart in the source
[3] = human; remark: listed apart in the source
[4] = human; remark: listed apart in the source
[5] = human; remark: listed apart in the source
[6] = human; remark: listed apart in the source
[7] = Highest frequency of moderate liver toxicity observed during clinical trials, expressed as a percentage. [column '% BIOL' in source]; details: human
[8] = human, serum, 4383 h
[9] = human; remark: listed apart in the source
[10] = Highest frequency of acute liver toxicity observed during clinical trials, expressed as a percentage. [column '% AIGUE' in source]; details: human
[11] = human; remark: listed apart in the source
[12] = Times to onset, minimal and maximal, observed in the indexed observations. [column 'DELAI' in source]; details: human
[13] = Proposed mechanism(s) of liver damage. [column 'MEC' in source]; details: human
[14] = human; remark: listed apart in the source
[15] = human, serum
[16] = human, serum; remark: listed apart in the source
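For Hepatotoxicity (association with vascular disease) in this document: count of indexed literature references reporting vascular liver injury in humans, e.g. peliosis hepatitis, hepatic veno-occlusive disease or Budd-Chiari syndrome.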
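For Hepatotoxicity (benign tumour) in this document: value is a count of indexed literature references citing a benign tumour confirmed by histopathology.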
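For Hepatotoxicity (choleostasis) in this document: human cholestatic liver injury, shown by histopathology or by peak ALT or AST elevation over alkaline phosphatase ratio below 2, value counts indexed literature reports.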
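For Hepatotoxicity (chronic liver disease) in this document: chronic liver injury confirmed by histopathology or persistently raised serum aminotransferase activity beyond 6 months, value given as the count of indexed literature references.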
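For Hepatotoxicity (cirrhosis) in this document: value is a count of indexed literature references reporting cirrhosis confirmed by histopathology.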
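For Hepatotoxicity (cytolytic) in this document: human cytolytic liver injury, shown by histopathology or by a ratio above 5 of peak ALT or AST elevation to alkaline phosphatase elevation, value counts indexed references.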
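For Hepatotoxicity (granulomatous hepatitis) in this document: value is a count of indexed literature references reporting granulomatous liver disease confirmed by histopathology.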
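For Hepatotoxicity (malignant tumour) in this document: malignant tumour confirmed by histopathology, value gives the count of indexed literature references reporting it.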
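For Hepatotoxicity (severe hepatitis) in this document: human clinical data: severe hepatitis, meaning potentially life-threatening liver failure or clinically observed cases, the value counts how many indexed literature references report it.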
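For Hepatotoxicity (steatosis) in this document: steatosis confirmed by histopathology, value is the count of indexed references.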

| Compound | Hepatotoxicity (severe hepatitis) [1] | Hepatotoxicity (granulomatous hepatitis) [2] | Hepatotoxicity (malignant tumour) [3] | Hepatotoxicity (cirrhosis) [4] | Hepatotoxicity (steatosis) [5] | Hepatotoxicity (cytolytic) [6] | Hepatotoxicity (moderate) [7] [%] | Hepatotoxicity (chronic liver disease) [8] | Hepatotoxicity (association with vascular disease) [9] | Hepatotoxicity (acute) [10] [%] | Hepatotoxicity (choleostasis) [11] | Hepatotoxicity (time to onset) [12] | Hepatotoxicity (mechanism) [13] | Hepatotoxicity (benign tumour) [14] | Hepatotoxicity (moderate) [15] | Hepatotoxicity (acute) [16] | Hepatotoxicity (severe hepatitis) ([1]; Liver) | Hepatotoxicity (moderate) ([7]; Liver) [%] | Hepatotoxicity (acute) ([10]; Liver) [%] |
| --- | --- | --- | --- | --- | --- | --- | --- | --- | --- | --- | --- | --- | --- | --- | --- | --- | --- | --- | --- |
| CARBOPLATIN | 1 | 0 | 0 | 0 | 0 | 0 | 27 | 0 | 5 | 6.1 | 1 | 1 week | Dose-dependant | 0 | 5 | 1 |  |  |  |
| STIBOGLUCONATE | 0 | 0 | 0 | 0 | 0 | 1 | 61.5 | 0 | 0 | 2 | 0 | 1 week - 3 weeks | Dose-dependant | 0 | 12 | 2 |  |  |  |
| CN(C)/N=N/c1[nH]cnc1C(N)=O [DACARBAZINE] | 6 | 0 | 0 | 0 | 0 | 4 | 50 | 0 | 24 | 0 | 2 | 1 cure - 4 cures | Allergic, Toxic | 0 | 12 | 5 |  |  |  |
| CCCc1nn(C)c2c(=O)[nH]c(-c3cc(S(=O)(=O)N4CCN(C)CC4)ccc3OCC)nc12 | 0 | 0 | 0 | 0 | 0 | 2 | 0 | 0 | 0 | 0 | 0 | 2 days - 4 months | Dose-dependant | 0 | 0 | 2 |  |  |  |
| COc1cnc(NS(=O)(=O)c2ccc(N)cc2)nc1 | 0 | 0 | 0 | 0 | 0 | 0 | 0 | 0 | 0 | 0 | 1 | 10 days | Allergic | 0 | 0 | 2 |  |  |  |
| CC(=O)Nc1cc([As](=O)(O)O)ccc1O [ACETARSONE] | 0 | 0 | 0 | 0 | 0 | 0 | 0 | 0 | 0 | 0 | 0 | 2 cures - 3 cures | Allergic | 0 | 0 | 2 |  |  |  |
| Cc1nnc(SCC2=C(C(=O)O)N3C(=O)[C@@H](NC(=O)Cn4cnnn4)[C@H]3SC2)s1 [CEFAZOLIN] |  | 0 | 0 | 0 | 0 | 1 |  | 0 | 0 |  | 1 | 1 week - 25 days | Allergic | 0 | 11 | 2 | 0 | 42.9 | 0 |
| CC(C)(O)c1ccccc1CC[C@@H](SCC1(CC(=O)O)CC1)c1cccc(/C=C/c2ccc3ccc(Cl)cc3n2)c1 [MONTELUKAST] | 0 | 0 | 0 | 0 | 0 | 2 | 13.9 | 0 | 0 |  | 2 | 3 days - 2 years | Allergic | 0 | 3 |  |  |  |  |
| CCn1cc(C(=O)O)c(=O)c2ccc(C)nc21 [NALIDIXIC ACID] | 0 | 0 | 0 | 0 | 0 | 1 | 0 | 0 | 0 | 0 | 2 | 2 weeks | Allergic | 0 | 2 |  |  |  |  |
| CN1c2ccccc2C(NCCCCCCC(=O)O)c2ccc(Cl)cc2S1(=O)=O (stereo not given) [TIANEPTINE] | 0 | 0 | 0 | 0 | 1 | 3 | 0 | 0 |  | 0 | 2 | 1 week - 6 months | Reactive metabolite | 0 | 0 | 4 |  |  |  |
| COc1c(N2C[C@@H]3CCCN[C@@H]3C2)c(F)cc2c(=O)c(C(=O)O)cn(C3CC3)c12 [MOXIFLOXACIN] |  | 0 | 0 | 0 | 0 | 0 |  | 0 | 0 |  | 1 | 26 days | Dose-dependant | 0 | 3 |  | 0 | 6.9 |  |

Source: ChEMBL document CHEMBL3137667, “[Drug-induced liver injury; fourteenth updated edition of the bibliographic database of liver injuries and related drugs]” (Gastroenterol Clin Biol, 2004)
